Among the data in patent publication US9464306B2, “Method for producing L-amino acid” (KANEKA CORPORATION, priority 2008, dated 2016) are dissolved concentration values, retold here.

A short description of data set [1]: Dissolved concentration of the L-amino acid in the reaction mixture after completion of the reaction (HPLC). As to conditions: substrate solution pH 8, 45° C.
Procedure: (§1) Here, the “dissolved concentration” refers to percentage (%) by weight of an amino acid dissolvable in the reaction mixture after completion of the reaction, and can be measured by the following method. That is, the L-amino acid is added to the reaction mixture after completion of the reaction until the L-amino acid is no longer dissolved. After that, the mixture is centrifuged, and the resulting supernatant is filtered. The amino acid present in the filtrate is quantitatively analyzed by high performance liquid chromatography, and the percentage (%) by weight of the amino acid is calculated.
The conditions of data set [2]: pH 8.
Procedure: as §1
[3] abbreviates: L-amino acid dissolvable in reaction mixture after reaction of the N-succinyl-DL-amino acid with liquid cultures of E. coli HB101 (pNHK) and E. coli HB101 (pNIG).

Read-outs that look alike come from different tables or passages of the source.

As to `N[C@@H](Cc1cccc(F)c1)C(=O)O` [L-3-fluorophenylalanine], in data set [1] (setting [3]), the dissolved concentration is given as no more than 0.5 % by weight. On the same count and under the same terms, as for `N[C@@H](Cc1ccc(Br)cc1)C(=O)O` [L-4-bromophenylalanine], the figure is no more than 0.5 % by weight. In the case of `C=CCCCCC[C@H](N)C(=O)O` [L-6-heptenylglycine], the dissolved concentration in data set [1] (setting [3]) and in data set [1] (L-amino acid dissolvable in reaction mixture after reaction with liquid culture of E. coli HB101 (pNIGHK)) was no more than 0.5 % by weight in each case. Take `N[C@@H](Cc1ccccc1)C(=O)O` [L-phenylalanine, reference compound]: in data set [1] (setting [3]), the dissolved concentration is given as 4 % by weight. For L-2-indanylglycine, in data set [2], the dissolved concentration is recorded as no more than 0.5 % by weight.
